Results from ChEMBL document CHEMBL3763132, “Discovery of highly selective CRAF inhibitors, 3-carboxamido-2H-indazole-6-arylamide: In silico FBLD design, synthesis and evaluation” (Bioorg Med Chem Lett, 2016).

Key:
[1] = Antiproliferative activity against human A375P cells by MTT assay; format: functional
[2] = Antiproliferative activity against human WM3629 cells by MTT/CellTiter 96 assay; format: functional
[3] = Selectivity ratio of GI50 for human A375P cells to GI50 for human WM3629 cells; format: functional
[4] = target: Insulin-like growth factor 1 receptor (Homo sapiens) (UniProt P08069); assay: Inhibition of human IGF1R at 10 uM
Sequence of Insulin-like growth factor 1 receptor (Homo sapiens) (P08069 31-736 limits assumed): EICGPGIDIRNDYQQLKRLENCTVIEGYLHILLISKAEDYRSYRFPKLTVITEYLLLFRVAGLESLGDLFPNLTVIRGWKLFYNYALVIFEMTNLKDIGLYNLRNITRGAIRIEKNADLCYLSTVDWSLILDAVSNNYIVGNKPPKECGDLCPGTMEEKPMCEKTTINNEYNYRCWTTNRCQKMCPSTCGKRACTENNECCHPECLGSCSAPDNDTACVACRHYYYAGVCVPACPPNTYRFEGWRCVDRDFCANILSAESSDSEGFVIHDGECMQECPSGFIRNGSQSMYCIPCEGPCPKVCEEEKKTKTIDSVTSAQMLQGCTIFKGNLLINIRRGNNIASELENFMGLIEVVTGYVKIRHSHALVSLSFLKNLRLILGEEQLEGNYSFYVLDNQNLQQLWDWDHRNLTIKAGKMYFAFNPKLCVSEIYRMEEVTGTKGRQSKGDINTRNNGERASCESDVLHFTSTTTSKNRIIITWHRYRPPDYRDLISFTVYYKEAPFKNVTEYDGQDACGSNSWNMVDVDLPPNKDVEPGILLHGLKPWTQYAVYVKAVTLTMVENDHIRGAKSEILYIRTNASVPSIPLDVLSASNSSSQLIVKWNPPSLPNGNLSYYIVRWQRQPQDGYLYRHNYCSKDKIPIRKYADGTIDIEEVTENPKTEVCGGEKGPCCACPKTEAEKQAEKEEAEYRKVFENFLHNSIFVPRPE
Sequence of Insulin-like growth factor 1 receptor (Homo sapiens) (P08069 741-1367 limits assumed): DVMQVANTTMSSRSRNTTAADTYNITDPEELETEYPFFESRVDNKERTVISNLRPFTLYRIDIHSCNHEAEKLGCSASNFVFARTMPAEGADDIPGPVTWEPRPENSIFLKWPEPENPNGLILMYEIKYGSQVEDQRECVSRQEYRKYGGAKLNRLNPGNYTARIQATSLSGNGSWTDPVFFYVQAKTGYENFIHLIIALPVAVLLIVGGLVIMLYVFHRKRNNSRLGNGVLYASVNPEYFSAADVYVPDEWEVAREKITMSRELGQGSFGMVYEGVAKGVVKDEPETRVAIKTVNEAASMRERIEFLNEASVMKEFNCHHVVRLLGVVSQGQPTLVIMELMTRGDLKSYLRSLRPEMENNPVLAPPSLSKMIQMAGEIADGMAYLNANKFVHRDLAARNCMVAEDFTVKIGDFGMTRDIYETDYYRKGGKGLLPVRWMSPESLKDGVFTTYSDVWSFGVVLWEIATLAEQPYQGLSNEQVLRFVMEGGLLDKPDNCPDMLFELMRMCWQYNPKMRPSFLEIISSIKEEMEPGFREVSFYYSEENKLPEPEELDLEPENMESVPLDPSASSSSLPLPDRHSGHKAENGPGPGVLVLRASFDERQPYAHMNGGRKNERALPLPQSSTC

[5] = target: Fibroblast growth factor receptor 2 (Homo sapiens) (UniProt P21802); assay: Inhibition of human FGFR2 at 10 uM
Sequence of Fibroblast growth factor receptor 2 (Homo sapiens) (P21802 22-821 limits assumed): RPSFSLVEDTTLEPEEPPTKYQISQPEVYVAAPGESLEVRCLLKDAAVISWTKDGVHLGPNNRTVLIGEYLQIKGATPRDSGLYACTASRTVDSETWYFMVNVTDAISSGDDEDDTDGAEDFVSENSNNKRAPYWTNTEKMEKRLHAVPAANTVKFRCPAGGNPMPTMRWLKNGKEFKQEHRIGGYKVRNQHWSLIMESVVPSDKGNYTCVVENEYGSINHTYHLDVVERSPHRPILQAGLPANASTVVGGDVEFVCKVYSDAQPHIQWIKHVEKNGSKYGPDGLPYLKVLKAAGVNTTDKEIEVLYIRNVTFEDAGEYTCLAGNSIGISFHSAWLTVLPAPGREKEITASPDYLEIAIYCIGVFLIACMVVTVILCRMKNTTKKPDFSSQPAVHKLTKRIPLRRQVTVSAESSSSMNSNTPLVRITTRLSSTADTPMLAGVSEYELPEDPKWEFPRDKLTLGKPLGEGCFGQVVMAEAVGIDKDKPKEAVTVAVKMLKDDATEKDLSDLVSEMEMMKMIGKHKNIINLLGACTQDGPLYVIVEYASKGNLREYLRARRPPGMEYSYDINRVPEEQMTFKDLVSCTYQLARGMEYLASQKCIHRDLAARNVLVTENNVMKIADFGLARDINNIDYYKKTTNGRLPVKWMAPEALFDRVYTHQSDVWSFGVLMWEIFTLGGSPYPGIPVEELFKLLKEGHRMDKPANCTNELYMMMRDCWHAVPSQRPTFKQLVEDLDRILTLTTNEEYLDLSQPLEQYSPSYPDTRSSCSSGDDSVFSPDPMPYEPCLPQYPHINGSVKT

[6] = target: Serine/threonine-protein kinase PLK1 (Homo sapiens) (UniProt P53350); assay: Inhibition of human PLK1 at 10 uM
[7] = target: Hepatocyte growth factor receptor (Homo sapiens) (UniProt P08581); assay: Inhibition of human cMET at 10 uM
[8] = target: Proto-oncogene tyrosine-protein kinase ROS (Homo sapiens) (UniProt P08922); assay: Inhibition of human ROS1 at 10 uM
[9] = target: Mitogen-activated protein kinase 14 (Homo sapiens) (UniProt Q16539); assay: Inhibition of human MAPK14 at 10 uM
[10] = target: T1, Serine/threonine-protein kinase B-raf (Homo sapiens, UniProt P15056); details: 10 uM
T1 sequence (P15056 whole entry): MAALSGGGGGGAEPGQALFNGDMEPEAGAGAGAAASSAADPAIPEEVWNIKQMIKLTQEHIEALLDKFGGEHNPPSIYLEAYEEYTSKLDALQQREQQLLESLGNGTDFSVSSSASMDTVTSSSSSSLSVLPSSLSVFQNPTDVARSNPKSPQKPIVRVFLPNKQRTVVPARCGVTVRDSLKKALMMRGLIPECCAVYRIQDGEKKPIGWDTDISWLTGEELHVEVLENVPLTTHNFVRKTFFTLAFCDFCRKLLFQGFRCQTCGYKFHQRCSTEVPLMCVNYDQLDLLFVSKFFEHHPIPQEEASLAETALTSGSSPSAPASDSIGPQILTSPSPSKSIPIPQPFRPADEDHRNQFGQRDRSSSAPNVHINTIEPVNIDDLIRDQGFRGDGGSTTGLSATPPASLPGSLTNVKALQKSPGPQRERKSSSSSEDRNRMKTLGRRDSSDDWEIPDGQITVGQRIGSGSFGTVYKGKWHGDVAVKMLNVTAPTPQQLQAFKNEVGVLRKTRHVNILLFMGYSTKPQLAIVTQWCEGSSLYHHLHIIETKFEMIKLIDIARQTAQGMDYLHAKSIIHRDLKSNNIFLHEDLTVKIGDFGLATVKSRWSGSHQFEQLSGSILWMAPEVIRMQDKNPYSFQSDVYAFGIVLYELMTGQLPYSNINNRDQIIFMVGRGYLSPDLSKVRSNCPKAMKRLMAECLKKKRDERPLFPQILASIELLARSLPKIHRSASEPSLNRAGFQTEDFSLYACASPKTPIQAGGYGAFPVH
Description: Inhibition of human BRAF at 10 uM

[11] = target: T2, RAF proto-oncogene serine/threonine-protein kinase (Homo sapiens, UniProt P04049); details: 10 uM
T2 sequence (P04049 whole entry): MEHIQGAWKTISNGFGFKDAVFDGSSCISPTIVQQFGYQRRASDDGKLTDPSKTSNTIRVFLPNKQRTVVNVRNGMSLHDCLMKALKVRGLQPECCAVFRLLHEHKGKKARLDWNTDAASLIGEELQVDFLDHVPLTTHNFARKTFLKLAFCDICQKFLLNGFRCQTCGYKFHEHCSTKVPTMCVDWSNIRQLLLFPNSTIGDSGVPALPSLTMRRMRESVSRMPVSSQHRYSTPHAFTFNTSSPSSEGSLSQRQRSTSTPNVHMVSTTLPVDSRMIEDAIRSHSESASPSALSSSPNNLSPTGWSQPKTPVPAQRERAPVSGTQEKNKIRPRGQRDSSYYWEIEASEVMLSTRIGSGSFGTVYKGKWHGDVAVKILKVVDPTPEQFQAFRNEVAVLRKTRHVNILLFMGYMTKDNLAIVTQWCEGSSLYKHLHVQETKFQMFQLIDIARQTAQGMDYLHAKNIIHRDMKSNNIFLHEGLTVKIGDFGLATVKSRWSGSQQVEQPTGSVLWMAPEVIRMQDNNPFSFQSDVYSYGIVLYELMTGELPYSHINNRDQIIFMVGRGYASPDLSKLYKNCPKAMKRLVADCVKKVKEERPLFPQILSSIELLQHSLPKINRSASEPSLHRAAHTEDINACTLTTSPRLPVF
Description: Inhibition of human RAF1 at 10 uM

[12] = target: Tyrosine-protein kinase JAK3 (Homo sapiens) (UniProt P52333); assay: Inhibition of human JAK3 at 10 uM
[13] = target: Focal adhesion kinase 1 (Homo sapiens) (UniProt Q05397); assay: Inhibition of human FAK at 10 uM
[14] = system: Serine/threonine-protein kinase B-raf (Homo sapiens), P15056 [V600E]; details: 10 uM
Description: Inhibition of human BRAF V599E mutant at 10 uM

[15] = target: Epidermal growth factor receptor (Homo sapiens) (UniProt P00533); assay: Inhibition of human EGFR at 10 uM
[16] = target: Tyrosine-protein kinase SYK (Homo sapiens) (UniProt P43405); assay: Inhibition of human SYK at 10 uM
[17] = target: ALK tyrosine kinase receptor (Homo sapiens) (UniProt Q9UM73); assay: Inhibition of human ALK at 10 uM
[18] = target: Proto-oncogene tyrosine-protein kinase Src (Homo sapiens) (UniProt P12931); assay: Inhibition of human cSRC at 10 uM
[19] = target: Cyclin-dependent kinase 2/cyclin E1 (Homo sapiens) (UniProt P24864+P24941); assay: Inhibition of human CDK2/cyclin E at 10 uM; format: protein-complex assay
[20] = target: Glycogen synthase kinase-3 beta (Homo sapiens) (UniProt P49841); assay: Inhibition of human GSK3beta at 10 uM
[21] = target: Aurora kinase A (Homo sapiens) (UniProt O14965); assay: Inhibition of human Aurora A at 10 uM
[22] = target: Mitogen-activated protein kinase 10 (Homo sapiens) (UniProt P53779); assay: Inhibition of human JNK3 at 10 uM
[23] = target: Tyrosine-protein kinase Lyn (Homo sapiens) (UniProt P07948); assay: Inhibition of human LYN at 10 uM
Homo sapiens = organism: Homo sapiens; assay: Inhibition of human PKA at 10 uM
[24] = target: T2, RAF proto-oncogene serine/threonine-protein kinase; assay: Inhibition of CRAF (unknown origin)
[25] = target: Dual specificity mitogen-activated protein kinase kinase 1 (Homo sapiens) (UniProt Q02750); assay: Inhibition of human MEK1 at 10 uM
[26] = target: Serine/threonine-protein kinase mTOR (Homo sapiens) (UniProt P42345); assay: Inhibition of human mTOR at 10 uM
[27] = target: Tyrosine-protein kinase Lck (Homo sapiens) (UniProt P06239); assay: Inhibition of human LCK at 10 uM
[28] = target: Mitogen-activated protein kinase 3 (Homo sapiens) (UniProt P27361); assay: Inhibition of human ERK1 at 10 uM
[29] = target: Macrophage-stimulating protein receptor (Homo sapiens) (UniProt Q04912); assay: Inhibition of human RON at 10 uM
[30] = target: T1, Serine/threonine-protein kinase B-raf; assay: Inhibition of BRAF (unknown origin)
[31] = target: Tyrosine-protein kinase ABL1 (Homo sapiens) (UniProt P00519); assay: Inhibition of human ABL1 at 10 uM
[32] = target: Macrophage colony-stimulating factor 1 receptor (Homo sapiens) (UniProt P07333); assay: Inhibition of human FMS at 10 uM
[33] = target: Receptor-type tyrosine-protein kinase FLT3 (Homo sapiens) (UniProt P36888); assay: Inhibition of human FLT3 at 10 uM
[34] = target: Cyclin-dependent kinase 1/cyclin B1 (Homo sapiens) (UniProt P06493+P14635); assay: Inhibition of human CDK1/cyclin B at 10 uM; format: protein-complex assay
Sequence of Cyclin-dependent kinase 1/cyclin B1 (Homo sapiens) (P06493 whole entry, looked up): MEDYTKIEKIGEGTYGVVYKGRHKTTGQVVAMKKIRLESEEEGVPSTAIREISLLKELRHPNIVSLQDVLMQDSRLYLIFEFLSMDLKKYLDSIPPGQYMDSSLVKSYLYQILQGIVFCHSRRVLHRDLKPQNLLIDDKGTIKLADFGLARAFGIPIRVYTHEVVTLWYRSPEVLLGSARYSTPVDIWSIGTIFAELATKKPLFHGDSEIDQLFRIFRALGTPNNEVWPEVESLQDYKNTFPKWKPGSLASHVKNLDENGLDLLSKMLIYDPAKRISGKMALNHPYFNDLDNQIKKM
Sequence of Cyclin-dependent kinase 1/cyclin B1 (Homo sapiens) (P14635 whole entry, looked up): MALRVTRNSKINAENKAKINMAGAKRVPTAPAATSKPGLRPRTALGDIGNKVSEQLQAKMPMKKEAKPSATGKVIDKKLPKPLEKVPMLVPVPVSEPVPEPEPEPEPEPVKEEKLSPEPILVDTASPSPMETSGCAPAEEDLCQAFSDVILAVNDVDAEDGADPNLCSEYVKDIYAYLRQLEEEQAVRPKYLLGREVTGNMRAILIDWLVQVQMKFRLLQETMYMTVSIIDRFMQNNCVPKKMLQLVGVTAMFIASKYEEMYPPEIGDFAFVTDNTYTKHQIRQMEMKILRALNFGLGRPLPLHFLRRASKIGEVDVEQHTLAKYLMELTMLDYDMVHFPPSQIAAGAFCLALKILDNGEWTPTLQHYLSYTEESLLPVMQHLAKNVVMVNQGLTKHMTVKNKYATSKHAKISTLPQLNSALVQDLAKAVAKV

[35] = target: Fibroblast growth factor receptor 3 (Homo sapiens) (UniProt P22607); assay: Inhibition of human FGFR3 at 10 uM
[36] = target: Mast/stem cell growth factor receptor Kit (Homo sapiens) (UniProt P10721); assay: Inhibition of human cKIT at 10 uM
[37] = target: Serine/threonine-protein kinase B-raf (Homo sapiens, UniProt P15056, V600E); assay: Inhibition of BRAF V599E mutant (unknown origin)
Sequence of Serine/threonine-protein kinase B-raf (Homo sapiens, UniProt P15056, V600E) (P15056 2-766 V600E limits assumed): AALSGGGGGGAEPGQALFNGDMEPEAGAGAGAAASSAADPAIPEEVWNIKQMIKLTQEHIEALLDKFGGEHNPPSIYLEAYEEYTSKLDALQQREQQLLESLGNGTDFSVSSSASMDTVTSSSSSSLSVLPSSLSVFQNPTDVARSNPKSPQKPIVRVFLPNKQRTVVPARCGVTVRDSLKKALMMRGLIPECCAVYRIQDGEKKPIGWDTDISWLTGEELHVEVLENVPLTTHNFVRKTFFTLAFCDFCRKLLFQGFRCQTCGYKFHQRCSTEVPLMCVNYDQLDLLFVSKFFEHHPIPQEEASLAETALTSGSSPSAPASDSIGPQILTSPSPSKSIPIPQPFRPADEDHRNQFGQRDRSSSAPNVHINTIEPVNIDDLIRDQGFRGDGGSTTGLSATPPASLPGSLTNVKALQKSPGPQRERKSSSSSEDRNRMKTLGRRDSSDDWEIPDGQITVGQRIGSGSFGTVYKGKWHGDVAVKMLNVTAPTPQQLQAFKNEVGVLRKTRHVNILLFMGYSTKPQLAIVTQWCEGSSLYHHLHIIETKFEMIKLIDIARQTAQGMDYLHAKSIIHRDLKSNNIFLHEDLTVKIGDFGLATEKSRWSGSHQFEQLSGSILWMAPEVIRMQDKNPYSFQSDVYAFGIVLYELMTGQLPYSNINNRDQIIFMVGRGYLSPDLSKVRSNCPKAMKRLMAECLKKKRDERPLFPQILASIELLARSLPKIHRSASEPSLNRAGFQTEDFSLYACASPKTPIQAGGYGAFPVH

[38] = target: Vascular endothelial growth factor receptor 2 (Homo sapiens) (UniProt P35968); assay: Inhibition of human KDR at 10 uM
[39] = target: RAC-alpha serine/threonine-protein kinase (Homo sapiens) (UniProt P31749); assay: Inhibition of human AKT1 at 10 uM

C[C@H](NC(=O)c1[nH]nc2cc(NC(=O)Nc3ccc(N4CCOCC4)cc3)ccc12)C(N)=O
GI50 [1]: 12.3 µM
GI50 [2]: 9.29 µM

C[C@H](NC(=O)c1[nH]nc2cc(NC(=O)C(c3ccccc3)c3ccccc3)ccc12)C(N)=O
GI50 [1]: > 30 µM
GI50 [2]: > 30 µM

CNC(=O)c1cc(Oc2ccc(NC(=O)Nc3ccc(Cl)c(C(F)(F)F)c3)cc2)ccn1 [SORAFENIB]
GI50 [1]: 2.58 µM
GI50 [2]: 0.78 µM

COc1cccc(CNc2ccc3c(C(=O)N[C@@H](C)C(N)=O)[nH]nc3c2)c1
GI50 [1]: 17.8 µM
GI50 [2]: 7.19 µM

C[C@H](NC(=O)c1[nH]nc2cc(NCc3cccc(NC(=O)c4ccc(Cl)c(C(F)(F)F)c4)c3)ccc12)C(N)=O
GI50 [1]: 7.19 µM
GI50 [2]: 4.54 µM

C[C@H](NC(=O)c1[nH]nc2cc(NC(=O)c3ccc4ncccc4c3)ccc12)C(N)=O
GI50 [1]: > 30 µM
GI50 [2]: > 30 µM

C[C@H](NC(=O)c1[nH]nc2cc(NC(=O)c3ccc(C(F)(F)F)c(N4CCOCC4)c3)ccc12)C(N)=O
GI50 [1]: 28.3 µM
GI50 [2]: 7.37 µM

C[C@H](NC(=O)c1[nH]nc2cc(NC(=O)c3cc4ccccc4s3)ccc12)C(N)=O
GI50 [1]: 28.2 µM
GI50 [2]: > 30 µM

C[C@H](NC(=O)c1[nH]nc2cc(NCc3cccc(NC(=O)c4cccc(C(C)(C)C#N)c4)c3)ccc12)C(N)=O
GI50 [1]: 28.3 µM
GI50 [2]: 7.37 µM

Cc1cncn1-c1cc(C(=O)Nc2cccc(CNc3ccc4c(C(=O)N[C@@H](C)C(N)=O)[nH]nc4c3)c2)cc(C(F)(F)F)c1
RatioGI50 [3]: 25
inhibition [4]: 0%
inhibition [5]: 9.75%
inhibition [6]: 9.04%
inhibition [7]: 9.84%
inhibition [8]: 1.49%
inhibition [9]: 11.4%
inhibition [10]: 21.1%
inhibition [11]: 99.4%
inhibition [12]: 0%
inhibition [13]: 8.88%
inhibition [14]: 19.5%
inhibition [15]: 0%
inhibition [16]: 2.89%
inhibition [17]: 0%
inhibition [18]: 0%
inhibition [19]: 3.1%
inhibition [20]: 12.3%
GI50 [1]: 15.9 µM
inhibition [21]: 4.99%
inhibition [22]: 0%
inhibition [23]: 5.4%
inhibition (Homo sapiens): 0%
IC50 [24]: 38.6 µM
GI50 [2]: 0.65 µM
inhibition [25]: 0%
inhibition [26]: 0%
inhibition [27]: 7.62%
inhibition [28]: 4.2%
inhibition [29]: 0.7%
IC50 [30]: 9.45 µM
inhibition [31]: 2.44%
inhibition [32]: 10.6%
inhibition [33]: 1.16%
inhibition [34]: 8.36%
inhibition [35]: 14.9%
inhibition [36]: 22.2%
IC50 [37]: 7.82 µM
inhibition [38]: 0%
inhibition [39]: 7.08%

C[C@H](NC(=O)c1[nH]nc2cc(NC(=O)Nc3cccc(C(F)(F)F)c3)ccc12)C(N)=O
GI50 [1]: 8.41 µM
GI50 [2]: 6.43 µM

Cc1cncn1-c1cc(C(=O)Nc2ccc3c(C(=O)N[C@@H](C)C(N)=O)[nH]nc3c2)cc(C(F)(F)F)c1
GI50 [1]: 7.19 µM
GI50 [2]: 12.9 µM

COc1ccc(-c2ccc(C(=O)Nc3ccc4c(C(=O)N[C@@H](C)C(N)=O)[nH]nc4c3)o2)cc1
GI50 [1]: 19.2 µM
GI50 [2]: 7.86 µM

C[C@H](NC(=O)c1[nH]nc2cc(NC(=O)Nc3ccc(C(F)(F)F)c(N4CCOCC4)c3)ccc12)C(N)=O
GI50 [1]: 10.1 µM
GI50 [2]: 3.51 µM

COc1ccc(-n2ncc(C(=O)Nc3ccc4c(C(=O)N[C@@H](C)C(N)=O)[nH]nc4c3)c2C(F)(F)F)cc1
GI50 [1]: 24.6 µM
GI50 [2]: 3.28 µM

C[C@H](NC(=O)c1[nH]nc2cc(NCc3cccc(NC(=O)c4cc(N5CCOCC5)cc(C(F)(F)F)c4)c3)ccc12)C(N)=O
GI50 [1]: 25.6 µM
GI50 [2]: 2.25 µM

C[C@H](NC(=O)c1[nH]nc2cc(NC(=O)Nc3ccc(Cl)c(C(F)(F)F)c3)ccc12)C(N)=O
GI50 [1]: 8.58 µM
GI50 [2]: 6.59 µM

C[C@H](NC(=O)c1[nH]nc2cc(NC(=O)c3cc(N4CCOCC4)cc(C(F)(F)F)c3)ccc12)C(N)=O
GI50 [1]: > 30 µM
GI50 [2]: > 30 µM

C[C@H](NC(=O)c1[nH]nc2cc(NC(=O)c3cccc(C(F)(F)F)c3)ccc12)C(N)=O
GI50 [1]: > 30 µM
GI50 [2]: > 30 µM

C[C@H](NC(=O)c1[nH]nc2cc(NCc3cccc(NC(=O)c4cnccn4)c3)ccc12)C(N)=O
GI50 [1]: 19.2 µM
GI50 [2]: 7.86 µM

C[C@H](NC(=O)c1[nH]nc2cc(NCc3ccc(F)cc3)ccc12)C(N)=O
GI50 [1]: 10.1 µM
GI50 [2]: 9.05 µM

C[C@H](NC(=O)c1[nH]nc2cc(NC(=O)c3ccccc3)ccc12)C(N)=O
GI50 [1]: > 30 µM
GI50 [2]: > 30 µM

C[C@H](NC(=O)c1[nH]nc2cc(NC(=O)c3ccc(Cl)c(C(F)(F)F)c3)ccc12)C(N)=O
GI50 [1]: 10.5 µM
GI50 [2]: 9.13 µM

C[C@H](NC(=O)c1[nH]nc2cc(NC(=O)c3cccc(C(C)(C)C#N)c3)ccc12)C(N)=O
GI50 [1]: > 30 µM
GI50 [2]: > 30 µM
